Patent US20260049085A1, “CYCLIC COMPOUNDS AND METHODS OF USING SAME” (SCHRÖDINGER, INC., priority 2022, published 2026)

Assays:
[1] = test system: IL10 secretion, OCI-LY10 cells; experiment: Human IL10 secretion assay in OCI-LY10 cells (MSD); assay type: cell-based; conditions: 24 h incubation, relative to DMSO set as 100%, read-out: IL-10 Secretion IC50
Experimental: IL10 is one of the cytokines that are regulated via activation of NF-kB signaling. For example, in ABC-DLBCL cell lines, the activated NF-kB signaling leads to increased IL10 secretion. Inhibition of NF-kB signaling has been shown leading to decreased IL10 secretion.
OCI-LY10 cells were seeded in IMEM supplemented with 20% fetal bovine serum at 4.8×10^5 cells per 160 μL per well in 96-well V-bottom cell culture plates (coming, 3894), treated with 120 nL of 3-fold serial compound dilutions, starting at 4 mM. The final vehicle concentration was 0.075% DMSO in all wells. After a 24 h incubation, human IL-10 pre-coated plates (Meso Scale Discovery) were washed 3 times with PBST, and 50 μL culture medium was aspirated into the MSD plate and incubated at 4° C. overnight. The supernatant was then discarded, and the wells were washed 3 times with PBST. SULFO-TAG Anti-human IL-10 Antibody (50×) was diluted 50-fold according to the Meso Scale Protocol, then 25 μL of SULFO-TAG Anti-human IL-10 Antibody (1×) was added. After 2 h of incubation at RT, the supernatant was discarded, and the well was washed 3 times with PBST. 2× read buffer was added and the signal was read on an MSD Sector S600. The effect of a particular compound on IL10 secretion is shown relative to the effect of DMSO; set as 100%. IC50 values (nM) were determined using 4-parametric curve-fitting.

[2] = biological target: T1, full-length MALT1 protein His-MALT1(1-824) (Homo sapiens, UniProt Q9UDY8); experiment: MALT1 protease assay (Ac-LRSR-AMC tetrapeptide substrate, fluorescence); assay type: biochemical; conditions: 1 nM MALT1, 25 μM Ac-LRSR-AMC, 2 h pre-incubation, 8 hr incubation at RT
T1 construct: full-length MALT1 protein His-MALT1(1-824); His (N); made in house; host or cells: baculovirus-infected insect cells
T1 sequence (Q9UDY8 1-824): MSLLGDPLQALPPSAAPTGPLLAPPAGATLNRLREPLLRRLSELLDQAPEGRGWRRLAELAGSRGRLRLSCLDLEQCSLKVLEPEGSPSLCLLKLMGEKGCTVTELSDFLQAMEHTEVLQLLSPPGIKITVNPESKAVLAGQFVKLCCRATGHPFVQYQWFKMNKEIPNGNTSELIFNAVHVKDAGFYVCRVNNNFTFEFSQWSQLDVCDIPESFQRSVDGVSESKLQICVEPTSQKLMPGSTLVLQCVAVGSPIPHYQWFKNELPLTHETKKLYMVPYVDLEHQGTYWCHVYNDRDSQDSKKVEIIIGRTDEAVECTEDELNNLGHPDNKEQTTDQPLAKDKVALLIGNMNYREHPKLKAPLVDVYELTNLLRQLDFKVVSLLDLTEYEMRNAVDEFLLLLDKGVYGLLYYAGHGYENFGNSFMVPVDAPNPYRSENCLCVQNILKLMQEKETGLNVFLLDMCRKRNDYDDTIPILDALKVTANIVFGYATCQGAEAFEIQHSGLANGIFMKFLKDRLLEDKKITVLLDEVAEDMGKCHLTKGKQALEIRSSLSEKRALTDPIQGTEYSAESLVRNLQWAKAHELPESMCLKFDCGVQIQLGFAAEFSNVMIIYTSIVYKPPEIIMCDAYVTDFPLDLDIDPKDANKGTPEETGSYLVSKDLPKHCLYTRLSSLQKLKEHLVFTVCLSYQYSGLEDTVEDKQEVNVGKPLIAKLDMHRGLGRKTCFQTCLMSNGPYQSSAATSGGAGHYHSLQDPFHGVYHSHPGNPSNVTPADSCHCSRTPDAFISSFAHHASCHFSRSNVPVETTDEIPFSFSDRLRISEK
In short: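 Full-length His-MALT1(1-824) from baculovirus-infected insect cells (1 nM) was pre-incubated 2 h at RT with compounds (0.1% DMSO), then 25 μM Ac-LRSR-AMC added in 50 mM Tris pH 7.5, 600 mM sodium citrate, 1 mM DTT, 1 mM EDTA, 0.05% BSA. Fluorescence (ex 355/em 460 nm) read after 8 h at RT; IC50 by non-linear regression of % remaining activity.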

IC50 [1] | IC50 [2] | Compound
10 to 100 nM | < 10 nM | C[C@]1(c2ccn(C(F)F)n2)C[C@H](C(=O)Nc2cnc(-n3nccn3)c(Cl)c2)c2cnc3cc(F)nn3c21 (single isomer, unassigned) [Example 88]
100 to 1000 nM | 10 to 100 nM | C[C@]1(c2cnn(C(F)F)c2)C[C@H](C(=O)Nc2cnc(-c3ncccn3)c(C(F)(F)F)c2)c2cnc3cc(F)nn3c21 (single isomer, unassigned) [Example 148]
100 to 1000 nM | < 10 nM | Cn1cc([C@@]2(C)C[C@H](C(=O)Nc3cnc(-n4nccn4)c(Cl)c3)c3cnc4c(F)c(F)nn4c32)cn1 (single isomer, unassigned) [Example 12]
 | ≥ 1000 nM | COc1cc(NC(=O)[C@H]2C[C@](C)(c3ccn(C(F)F)n3)c3c2cnc2cc(F)nn32)cnc1-c1ncccn1 (single isomer, unassigned) [Example 179]
 | ≥ 1000 nM | C[C@@]1(c2ccn(C(F)F)n2)C[C@@H](C(=O)Nc2cnc(-c3ncccn3)c(C(F)(F)F)c2)c2cnc3cc(Cl)nn3c21 (single isomer, unassigned) [Example 172]
 | 10 to 100 nM | Cc1cc(NC(=O)[C@H]2C[C@](C)(c3cnn(C)c3)c3c2cnc2cc(F)nn32)cnc1-n1nccn1 (single isomer, unassigned) [Example 56, trans-2-fluoro-8-methyl-8-(1-methyl-1H-pyrazol-4-yl)-N-(5-methyl-6-(2H-1,2,3-triazol-2-yl)pyridin-3-yl)-7,8-dihydro-6H-cyclopenta[e]pyrazolo[1,5-a]pyrimidine-6-carboxamide]
 | ≥ 1000 nM | CC1(n2ccc([C@]3(C)C[C@@H](C(=O)Nc4cnc(-c5ncccn5)c(C(F)(F)F)c4)c4cnc5cc(F)nn5c43)n2)CC1 (single isomer, unassigned) [Example 159]
 | 100 to 1000 nM | C[C@]1(c2ccn(C(F)F)n2)C[C@@H](C(=O)Nc2cnc(OC(F)F)c(C#N)c2)c2cnc3cc(F)nn3c21 (single isomer, unassigned) [Example 113]
 | ≥ 1000 nM | C[C@@]1(c2ccn(C(F)F)n2)C[C@@H](C(=O)Nc2ccc(-c3ncccn3)c(Cl)c2)c2cnc3cc(F)nn3c21 (single isomer, unassigned) [Example 190]
 | 10 to 100 nM | C[C@@]1(c2cnn(C(F)F)c2)C[C@H](C(=O)Nc2cnc(OC(F)F)c(C#N)c2)c2cnc3cc(F)nn3c21 (single isomer, unassigned) [Example 94]
 | 100 to 1000 nM | CCn1cc([C@@]2(C)C[C@@H](C(=O)Nc3cnc(-n4nccn4)c(Cl)c3)c3cnc4cc(F)nn4c32)cn1 (single isomer, unassigned) [Example 23]
 | ≥ 1000 nM | CC(F)(F)n1ccc([C@]2(C)C[C@@H](C(=O)Nc3cnc(-c4ncccn4)c(C(F)(F)F)c3)c3cnc4cc(F)nn4c32)n1 (single isomer, unassigned) [Example 165, (trans)-8-(1-(1,1-difluoroethyl)-1H-pyrazol-3-yl)-2-fluoro-8-methyl-N-(6-(pyrimidin-2-yl)-5-(trifluoromethyl)pyridin-3-yl)-7,8-dihydro-6H-cyclopenta[e]pyrazolo[1,5-a]pyrimidine-6-carboxamide]
 | ≥ 1000 nM | Cc1cc(NC(=O)[C@H]2C[C@@](C)(c3cnn(C)c3)c3c2cnc2cc(F)nn32)cnc1OC(F)F (single isomer, unassigned) [Example 62]
 | 100 to 1000 nM | C[C@]1(c2ccn(C(F)F)n2)C[C@@H](C(=O)Nc2cnc(-c3ncccn3)c(C(F)(F)F)c2)c2cnc3cc(F)nn3c21 (single isomer, unassigned) [Example 139]
 | < 10 nM | C[C@]1(c2cnn(C3CC3)c2)C[C@H](C(=O)Nc2cnc(OC(F)F)c(C#N)c2)c2cnc3cc(F)nn3c21 (single isomer, unassigned) [Example 72]
 | 100 to 1000 nM | Cn1ccc([C@]2(C)C[C@H](C(=O)Nc3cnc(-n4nccn4)c(C(F)(F)F)c3)c3cnc4cc(F)nn4c32)n1 (single isomer, unassigned) [Example 146]

IC50 [1] | IC50 [2] | Compound
 | 10 to 100 nM | CC1(n2ccc([C@@]3(C)C[C@H](C(=O)Nc4cnc(-c5ncccn5)c(C(F)(F)F)c4)c4cnc5cc(F)nn5c43)n2)CC1 (single isomer, unassigned) [Example 158]
 | < 10 nM | Cn1ccc([C@@]2(C)C[C@H](C(=O)Nc3cnc(-n4nccn4)c(Cl)c3)c3cnc4cc(Cl)nn4c32)n1 (single isomer, unassigned) [Example 76]
 | 100 to 1000 nM | CC1(c2cnn(C(F)F)c2)CC(C(=O)Nc2cnc(-c3ncc(F)cn3)c(C(F)(F)F)c2)c2cnc3cc(F)nn3c21 (single isomer, unassigned) [Example 133]
 | ≥ 1000 nM | C[C@@]1(c2ccn(C(F)F)n2)C[C@@H](C(=O)Nc2cnc(-c3ncccn3)c(C(F)(F)F)c2)c2cnc3cc(F)nn3c21 (single isomer, unassigned) [Example 137]
 | ≥ 1000 nM | C[C@@]1(c2cnn(C(F)F)c2)C[C@@H](C(=O)Nc2cnc(-c3ncncc3F)c(C(F)(F)F)c2)c2cnc3cc(F)nn3c21 (single isomer, unassigned) [Example 119]
 | ≥ 1000 nM | C[C@@]1(c2ccn(C(F)F)n2)C[C@@H](C(=O)Nc2cnc(-n3nccn3)c(Cl)c2)c2cnc3cc(F)nn3c21 (single isomer, unassigned) [Example 89]
 | ≥ 1000 nM | Cn1cc([C@]2(C)C[C@@H](C(=O)Nc3cnc(-n4nccn4)c(Cl)c3)c3cnc4cc(F)nn4c32)cn1 (single isomer, unassigned) [Example 2]
 | < 10 nM | C[C@]1(c2cncs2)C[C@H](C(=O)Nc2cnc(-n3nccn3)c(Cl)c2)c2cnc3cc(F)nn3c21 (single isomer, unassigned) [Example 36]
 | 100 to 1000 nM | C[C@@]1(c2ccn(C(F)F)n2)C[C@H](C(=O)Nc2cnc(-c3ncccn3)c(C(F)(F)F)c2)c2cnc3cc(F)nn3c21 (single isomer, unassigned) [Example 138]
 | 10 to 100 nM | Cc1cc(NC(=O)[C@H]2C[C@](C)(c3cnn(C)c3)c3c2cnc2cc(F)nn32)cnc1OC(F)F (single isomer, unassigned) [Example 60]
 | 100 to 1000 nM | CC(F)(F)n1ccc([C@@]2(C)C[C@@H](C(=O)Nc3cnc(-c4ncccn4)c(C(F)(F)F)c3)c3cnc4cc(F)nn4c32)n1 (single isomer, unassigned) [Example 167, (cis)-8-(1-(1,1-difluoroethyl)-1H-pyrazol-3-yl)-2-fluoro-8-methyl-N-(6-(pyrimidin-2-yl)-5-(trifluoromethyl)pyridin-3-yl)-7,8-dihydro-6H-cyclopenta[e]pyrazolo[1,5-a]pyrimidine-6-carboxamide]
 | 100 to 1000 nM | CC1(n2cc([C@]3(C)C[C@H](C(=O)Nc4cnc(-n5nccn5)c(Cl)c4)c4cnc5cc(F)nn5c43)cn2)CC1 (single isomer, unassigned) [Example 108]
 | 100 to 1000 nM | Cn1nccc1[C@]1(C)C[C@H](C(=O)Nc2cnc(-n3nccn3)c(Cl)c2)c2cnc3cc(F)nn3c21 (single isomer, unassigned) [Example 66]
 | 100 to 1000 nM | CC(F)(F)n1cc([C@]2(C)C[C@H](C(=O)Nc3cnc(-n4nccn4)c(Cl)c3)c3cnc4cc(F)nn4c32)cn1 (single isomer, unassigned) [Example 122]
 | 100 to 1000 nM | CC1(n2cc([C@@]3(C)C[C@@H](C(=O)Nc4cnc(-n5nccn5)c(Cl)c4)c4cnc5cc(F)nn5c43)cn2)CC1 (single isomer, unassigned) [Example 109]
